Measured values: US20240132431A1, “METHOD FOR ALKYLATING ACIDIC FUNCTIONAL GROUP” (Chugai Seiyaku Kabushiki Kaisha, priority 2021, published 2024)
Values belong to the molecule of their own block, whether it stands above or below them.

Target: T1, Bcl-2 protein (Recombinant Human Bcl-2 Protein) (Homo sapiens, UniProt P10415)
T1 construct: purchased Novus NBP2-34889
Experiment: Binding evaluation of mixture library compounds to Bcl-2 using AS-MS (affinity selection mass spectrometry)
Conditions: for ASMS ratio (%) n = 1 / ASMS ratio (%) n = 2: ASMS Ratio(%)=(A−C)/B×100; for ASMS ratio (%) n = 1: replicate n = 1; for ASMS ratio (%) n = 2: replicate n = 2
Procedure, shortened: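 Readout is ASMS Ratio (%), (A−C)/B×100, from reversed-phase LC/MS of SEC-passed extracts, with protein-free unfiltered standard (B) and protein-free SEC blank (C). Recombinant human Bcl-2 at 20 μM final met ~1200 pooled compounds at […] each for 1 h, 23° C., dark, in Tris-HCl pH 7.4 buffer.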

[1] = AS-MS on the mixture of 1200 library compounds
[2] = AS-MS, mixture of 1200 compounds, Bcl-2

T1 sequence (P10415 whole entry): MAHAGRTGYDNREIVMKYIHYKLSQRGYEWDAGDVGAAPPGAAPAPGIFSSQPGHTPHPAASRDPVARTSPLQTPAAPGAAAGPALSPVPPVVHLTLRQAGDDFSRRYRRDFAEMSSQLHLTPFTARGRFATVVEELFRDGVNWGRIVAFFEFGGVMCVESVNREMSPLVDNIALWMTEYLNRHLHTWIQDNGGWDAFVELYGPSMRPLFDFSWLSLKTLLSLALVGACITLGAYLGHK

Molecule: CCOc1cncc(-c2cc(CN3CCN(c4ccc(C(=O)NS(=O)(=O)c5ccc(NCCSc6ccccc6)c(C(F)(F)F)c5)nn4)CC3)cc(C(F)(F)F)c2)c1 [B2R088-01, 6-[4-[[3-(5-Ethoxypyridin-3-yl)-5-(trifluoromethyl)phenyl]methyl]piperazin-1-yl]-N-[4-(2-phenylsulfanylethylamino)-3-(trifluoromethyl)phenyl]sulfonylpyridazine-3-carboxamide]
ASMS ratio (%) (n = 1): 35.3%
ASMS ratio (%) (n = 2): 13.1%

Molecule: CCOc1cccc(C#Cc2ccccc2C(=O)N2CCN(c3ccc(C(=O)NCC45CC6CC(CC(C6)C4)C5)cc3)CC2)c1 [B1A029-01, N-(1-Adamantylmethyl)-4-[4-[2-[2-(3-ethoxyphenyl)ethynyl]benzoyl]piperazin-1-yl]benzamide]
ASMS ratio (%) n = 1 [2]: −22.3%
ASMS ratio (%) n = 2 [2]: −13.0%

Molecule: CCOc1cccc(C#Cc2ccccc2C(=O)N2CCN(c3ccc(C(=O)N(CC)CC)cc3)CC2)c1 [B4J029-01, 4-[4-[2-[2-(3-Ethoxyphenyl)ethynyl]benzoyl]piperazin-1-yl]-N,N-diethylbenzamide]
ASMS ratio (%) n = 1 [1]: 0.0%
ASMS ratio (%) n = 2 [1]: 0.0%

Molecule: CCOc1cccc(-c2ccc(CN3CCN(c4ccc(C(=O)NS(C)(=O)=O)nn4)CC3)c(CC)c2)c1 [B2I075-01]
ASMS ratio (%) (n = 1): 0.0%
ASMS ratio (%) (n = 2): 0.0%

Molecule: CCOc1cncc(-c2cnn(-c3cc(C(=O)N4CCN(c5ccc(C(=O)N(C)CC67CC8CC(CC(C8)C6)C7)nn5)CC4)cc(C(F)(F)F)c3)c2)c1 [B3A022-01, N-(1-Adamantylmethyl)-6-[4-[3-[4-(5-ethoxypyridin-3-yl)pyrazol-1-yl]-5-(trifluoromethyl)benzoyl]piperazin-1-yl]-N-methylpyridazine-3-carboxamide]
ASMS ratio (%) n = 1 [1]: 4.9%
ASMS ratio (%) n = 2 [1]: 7.2%

Molecule: CCOc1cccc(-c2ccc(CN3CCN(c4ccc(C(=O)NCC56CC7CC(CC(C7)C5)C6)cc4)CC3)cc2F)c1 [B1A051-01, N-(1-Adamantylmethyl)-4-[4-[[4-(3-ethoxyphenyl)-3-fluorophenyl]methyl]piperazin-1-yl]benzamide]
ASMS ratio (%) n = 1 [2]: −5.4%
ASMS ratio (%) n = 2 [2]: −4.2%

Molecule: CCOc1cccc(C#Cc2ccccc2CN2CCN(c3ccc(C(=O)N(CC)CC)cc3)CC2)c1 [B4J069-01, 4-[4-[[2-[2-(3-Ethoxyphenyl)ethynyl]phenyl]methyl]piperazin-1-yl]-N,N-diethylbenzamide]
ASMS ratio (%) n = 1 (AS-MS, mixture library, Bcl-2): 1.8%
ASMS ratio (%) n = 2 (AS-MS, mixture library, Bcl-2): −0.8%

Molecule: CCOc1cncc(-c2ccc(C(=O)N3CCN(c4ccc(C(=O)NS(=O)(=O)C(C)(C)C)nn4)CC3)c3ccccc23)c1 [B2L014-01, N-tert-Butylsulfonyl-6-[4-[4-(5-ethoxypyridin-3-yl)naphthalene-1-carbonyl]piperazin-1-yl]pyridazine-3-carboxamide]
ASMS ratio (%) (n = 1): 0.3%
ASMS ratio (%) (n = 2): 0.5%

Molecule: CCOc1cccc(-c2cnn(-c3cc(C(=O)N4CCN(c5ccc(C(=O)NCC67CC8CC(CC(C8)C6)C7)nn5)CC4)cc(C(F)(F)F)c3)c2)c1 [B1A021-01, N-(1-Adamantylmethyl)-6-[4-[3-[4-(3-ethoxyphenyl)pyrazol-1-yl]-5-(trifluoromethyl)benzoyl]piperazin-1-yl]pyridazine-3-carboxamide]
ASMS ratio (%) n = 1 [2]: −1.3%
ASMS ratio (%) n = 2 [2]: −3.7%

Molecule: 6-[4-[3-[4-(5-Ethoxypyridin-3-yl)pyrazol-1-yl]-5-(trifluoromethyl)benzoyl]piperazin-1-yl]-N-propylpyridazine-3-carboxamide [B1M030-01]
ASMS ratio (%) n = 1 [2]: 0.0%
ASMS ratio (%) n = 2 [2]: −5.9%

Molecule: 4-[4-[4-(5-Ethoxypyridin-3-yl)-3-methylbenzoyl]piperazin-1-yl]-N-propylbenzamide [B1M039-01]
ASMS ratio (%) n = 1 [2]: 2.3%
ASMS ratio (%) n = 2 [2]: −0.6%

Molecule: CCOc1cncc(-c2cc(OC)c(CN3CCN(c4ccc(C(=O)N(CC)CC)nn4)CC3)c(OC)c2)c1 [B4J086-01, 6-[4-[[4-(5-Ethoxypyridin-3-yl)-2,6-dimethoxyphenyl]methyl]piperazin-1-yl]-N,N-diethylpyridazine-3-carboxamide]
ASMS ratio (%) n = 1 (AS-MS, mixture library, Bcl-2): 0.0%
ASMS ratio (%) n = 2 (AS-MS, mixture library, Bcl-2): 0.0%

Molecule: CCOc1cncc(-c2cc(CN3CCN(c4ccc(C(=O)NS(=O)(=O)c5ccc(NCCSc6ccccc6)c([N+](=O)[O-])c5)nn4)CC3)cc(OC(C)C)c2)c1 [B2Q084-01, 6-[4-[[3-(5-Ethoxypyridin-3-yl)-5-propan-2-yloxyphenyl]methyl]piperazin-1-yl]-N-[3-nitro-4-(2-phenylsulfanylethylamino)phenyl]sulfonylpyridazine-3-carboxamide]
ASMS ratio (%) n = 1 (AS-MS, mixture library, Bcl-2): 12.6%
ASMS ratio (%) n = 2 (AS-MS, mixture library, Bcl-2): −4.9%

Molecule: CCOc1cncc(-c2ccc(CN3CCN(c4ccc(C(=O)NS(=O)(=O)CC56CC7CC(CC(C7)C5)C6)nn4)CC3)c(CC)c2)c1 [B2A076-01, N-(1-Adamantylmethylsulfonyl)-6-[4-[[4-(5-ethoxypyridin-3-yl)-2-ethylphenyl]methyl]piperazin-1-yl]pyridazine-3-carboxamide]
ASMS ratio (%) n = 1 (AS-MS, mixture library, Bcl-2): 23.4%
ASMS ratio (%) n = 2 (AS-MS, mixture library, Bcl-2): 11.4%

The next lines start with the values.

ASMS ratio (%) n = 1 [1]: 0.0%
ASMS ratio (%) n = 2 [1]: 4.3%
Molecule: CCOc1cccc(-c2ccccc2CCC(=O)N2CCN(c3ccc(C(=O)Nc4ccc(OC)cc4)nn3)CC2)c1 [B1O011-01, 6-[4-[3-[2-(3-Ethoxyphenyl)phenyl]propanoyl]piperazin-1-yl]-N-(4-methoxyphenyl)pyridazine-3-carboxamide]

ASMS ratio (%) (n = 1): 1.7%
ASMS ratio (%) (n = 2): −4.6%
Molecule: CCOc1cncc(-c2ccc(C(=O)N3CCN(c4ccc(C(=O)NS(=O)(=O)c5ccc(NCCSc6ccccc6)c(C(F)(F)F)c5)cc4)CC3)cc2C)c1 [B2R026-01, 4-[4-[4-(5-Ethoxypyridin-3-yl)-3-methylbenzoyl]piperazin-1-yl]-N-[4-(2-phenylsulfanylethylamino)-3-(trifluoromethyl)phenyl]sulfonylbenzamide]

ASMS ratio (%) n = 1 [2]: −0.1%
ASMS ratio (%) n = 2 [2]: 0.6%
Molecule: CCOc1cccc(-c2ccc(C(=O)N3CCN(c4ccc(C(=O)NCC(F)(F)F)nn4)CC3)cc2F)c1 [B1K005-01, 6-[4-[4-(3-Ethoxyphenyl)-3-fluorobenzoyl]piperazin-1-yl]-N-(2,2,2-trifluoroethyl)pyridazine-3-carboxamide]

ASMS ratio (%) n = 2 [2]: 0.0%
Molecule: CCOc1cncc(C#Cc2cncc(C(=O)N3CCN(c4ccc(C(=O)NCC56CC7CC(CC(C7)C5)C6)nn4)CC3)c2)c1 [B1A010-01, N-(1-Adamantylmethyl)-6-[4-[5-[2-(5-ethoxypyridin-3-yl)ethynyl]pyridine-3-carbonyl]piperazin-1-yl]pyridazine-3-carboxamide]

ASMS ratio (%) (n = 1): 9.1%
ASMS ratio (%) (n = 2): 2.7%
Molecule: CCOc1cncc(-c2cc(C(=O)N3CCN(c4ccc(C(=O)NS(=O)(=O)c5ccc(NCCSc6ccccc6)c(C(F)(F)F)c5)nn4)CC3)cc(C(C)(C)C)c2)c1 [B2R016-01, 6-[4-[3-tert-Butyl-5-(5-ethoxypyridin-3-yl)benzoyl]piperazin-1-yl]-N-[4-(2-phenylsulfanylethylamino)-3-(trifluoromethyl)phenyl]sulfonylpyridazine-3-carboxamide]

ASMS ratio (%) n = 1 [2]: 9.7%
ASMS ratio (%) n = 2 [2]: 4.0%
Molecule: CCOc1cncc(-c2cc(CN3CCN(c4ccc(C(=O)NCC56CC7CC(CC(C7)C5)C6)cc4)CC3)cc(OCC)c2)c1 [B1A056-01, N-(1-Adamantylmethyl)-4-[4-[[3-ethoxy-5-(5-ethoxypyridin-3-yl)phenyl]methyl]piperazin-1-yl]benzamide]

ASMS ratio (%) n = 1 (AS-MS, mixture library, Bcl-2): 6.2%
ASMS ratio (%) n = 2 (AS-MS, mixture library, Bcl-2): −9.8%
Molecule: CCOc1cccc(-c2ccc(C(=O)N3CCN(c4ccc(C(=O)NS(=O)(=O)CC56CC7CC(CC(C7)C5)C6)cc4)CC3)c3ccccc23)c1 [B2A035-01, N-(1-Adamantylmethylsulfonyl)-4-[4-[4-(3-ethoxyphenyl)naphthalene-1-carbonyl]piperazin-1-yl]benzamide]

ASMS ratio (%) (n = 1): 0.0%
ASMS ratio (%) (n = 2): 0.0%
Molecule: CCOc1cccc(-c2cc(CN3CCN(c4ccc(C(=O)NS(=O)(=O)C(C)(C)C)cc4)CC3)cc(OC(F)(F)F)c2)c1 [B2L063-01, N-tert-Butylsulfonyl-4-[4-[[3-(3-ethoxyphenyl)-5-(trifluoromethoxy)phenyl]methyl]piperazin-1-yl]benzamide]

ASMS ratio (%) n = 1 [1]: 2.8%
ASMS ratio (%) n = 2 [1]: 0.1%
Molecule: CCOc1cncc(-c2cc(C(=O)N3CCN(c4ccc(C(=O)N(C)CC56CC7CC(CC(C7)C5)C6)nn4)CC3)cc(C(C)(C)C)c2)c1 [B3A016-01, N-(1-Adamantylmethyl)-6-[4-[3-tert-butyl-5-(5-ethoxypyridin-3-yl)benzoyl]piperazin-1-yl]-N-methylpyridazine-3-carboxamide]

ASMS ratio (%) n = 1 [1]: 3.8%
ASMS ratio (%) n = 2 [1]: 0.0%
Molecule: CCOc1cccc(-c2cc(C(=O)N3CCN(c4ccc(C(=O)N(C)CC56CC7CC(CC(C7)C5)C6)cc4)CC3)cc(C(F)(F)F)c2)c1 [B3A039-01, N-(1-Adamantylmethyl)-4-[4-[3-(3-ethoxyphenyl)-5-(trifluoromethyl)benzoyl]piperazin-1-yl]-N-methylbenzamide]

ASMS ratio (%) n = 1 [2]: 5.2%
ASMS ratio (%) n = 2 [2]: −3.2%
Molecule: CCOc1cncc(-c2ccccc2CCC(=O)N2CCN(c3ccc(C(=O)NCC45CC6CC(CC(C6)C4)C5)cc3)CC2)c1 [B1A034-01, N-(1-Adamantylmethyl)-4-[4-[3-[2-(5-ethoxypyridin-3-yl)phenyl]propanoyl]piperazin-1-yl]benzamide]
